Data on one compound can be found in US9540389B2, “Antimicrobial potentiators” (priority 2013, dated 2017).

The subject of assay [1] is E. coli AB1157. Put plainly: Time-kill assay (CIP and/or EPI). Type of assay: cell-based, Escherichia coli. On the procedure: (§1) Panel (C): Bactericidal activity of CIP alone, 25 μM MBX2319 alone, or 25 μM MBX2319 combined with a bacteriostatic concentration of CIP against E. coli AB1157 and isogenic efflux defective mutants after 2 hours exposure. […] Panel (D): Bactericidal activity of CIP alone, 25 μM MBX2319 alone, 25 μM PAβN alone, and a bacteriostatic concentration of CIP combined with 25 μM MBX2319 or combined with 25 μM PAβN against the following organisms: a) E. coli AB1157, b) E. coli ATCC 25922, c) K. pneumoniae ATCC 700603, d) S. flexneri ATCC 12022, e) S. enterica ATCC 14028, f) E. aerogenes ATCC 13048.
(§2) • Strains and Reagents. The following strains were obtained from the Keio collection (Baba, et al.: Construction of Escherichia coli K-12 in-frame, single-gene knockout mutants: the Keio collection. In Mol Syst Biol, vol. 2, pp. 2006 0008, (2006)): JW0451 (ΔacrB::kan), JW5503 (ΔtolC::kan), JW3234 (ΔacrF::kan), JW2661 (ΔemrB::kan), JW0863 (ΔmacB::kan). The deletion mutations in each of these strains were transferred to AB1157 using P1 phage transduction (see Table 1). The construction of the E. coli cell-based reporter strain (SOS-XXX) that was used for high throughput screening is described in detail in the supplementary information. […] Irgasan was a generous gift from Ciba Speciality Chemicals, Inc. (High Point, N.C.). Hoechst 33342 (H33342) was purchased from Molecular Probes (Eugene, Oreg.). […] Luria Broth (Miller) and agar were purchased as prepared dehydrated media from Becton Dickenson (Franklin Lakes, N.J.). The compound libraries used in high-throughput screens were purchased from Chembridge (San Diego, Calif.), ChemDiv (San Diego, Calif.), and TimTec (Newark, Del.). MBX2319 was synthesized by Microbiotix, Inc. • Antibacterial Activity Assays. The minimal inhibitory concentration (MIC) of antibacterial agents and biocides were determined using the microbroth dilution method essentially as described in the CLSI protocol M7-A7 (CLSI: Method for dilution antimicrobial susceptibility testing for bacteria that grow aerobically; Approved standard-document M7-A7. In Clinical and Laboratory Standards Institute document M7-A7, Clinical and Laboratory Standards Institute, Wayne, Pa., (2006)), with the following exceptions. LB media was used instead of MHB. […] The final concentration of DMSO in each assay was 2%. […] MIC assays were performed in triplicate and the geometric mean was calculated. […] Viability was monitored over 2-4 hours by making serial dilutions in saline and spotting 5 μl of each dilution onto the surface of an LB agar plate in triplicate. Colonies were counted after the plates were incubated at 37° C. for 16-18 hr, colony forming units (CFU) per ml were calculated, and the average and standard deviation for the three replicates was determined. […]

The test system of assay [2] is E. coli AB1157 ΔacrF. Put plainly: Time-kill assay (CIP and/or EPI). Type of assay: cell-based, Escherichia coli. To be noted: 25 μM MBX2319 + 1×MIC CIP, 2 hours. As to the method:
as §1, §2

`CC1(C)Cc2c(C#N)c(SCCc3ccccc3)nc(N3CCOCC3)c2CO1` [MBX2319]: the “decreased viability (CFU/ml) as compared to 1×MIC CIP alone” value in assay [1] (3.13 μM MBX2319 + […] CIP, 4 hr exposure) is recorded as 10,000 fold. Besides, the “effect on bactericidal activity of […] CIP (1×MIC)” value in assay [1] (MBX2319 up to 3.13 μM, dose-dependent, PAβN as high as 100 μM) is “increased the bactericidal activity”. In assay [1] (alone at concentrations up to 50 μM), the “effect on growth, compound alone” value is “did not affect growth”. The “potentiation of the bactericidal activity of CIP” value in assay [2] is “potentiated the bactericidal activity of CIP”.
